Test results published in patent US6521615B2, “Diagnosing an animal for pyrophosphate gout, osteoporosis, or osteoarthritis by assaying intracellular pyrophosphate content in peripheral blood cells” (The Regents of the University of California, priority 1998, dated 2003).
Entries after “also recorded” stand apart in the source; their conditions may differ. Where two headings read alike, the source gives them in different places.

Tested on: human peripheral blood lymphocytes (mononuclear cells)
Method: Mononuclear Cell Isolation: For this purpose 5 ml of freshly drawn heparinized blood was layered on 3.0 ml of Histopaque in a 15 ml polypropylene centrifuge tube and centrifuged at room temperature for 20 minutes at 1,000 g. The mononuclear cell layer was then removed from the tube and transferred into a new 15-ml tube. Volume was brought to a total of 5 ml by addition of Hanks buffered salt solution lacking Mg and Ca (HBSS). This suspension of cells was again layered onto 3.0 ml of Histopaque and again centrifuged as before.
Resuspension of the centrifuged cells in 12-ml HBSS was repeated three times, each followed by 10 min centrifugation at a lower g of 250 g, 50 g, and 50 g to remove contaminating platelets which carry substantial PPi.
After decanting the supernatant, the cell pellet was resuspended in 1.0 ml of HBSS for counting in a hemocytometer. After counting, the cell suspension was spun for 10 minutes in a microfuge at 14,000 rpm. After decanting and thoroughly removing the supernatant, 3.0 μl of 0.1 M sodium […] (an alkaline phosphatase inhibitor) were added and the cells were lysed by addition of 100 μl of 1% triton X-100 and vortexing. The lysate is then stored frozen at −20° C. until time of assay.
PPi Assay: The assay of PPi in mononuclear cells in Tables 1 and 2 were done by the luminescent methods (Barshop, B A et al. Analyt Biochem (1991) 197:266-272). […] Each sample was assayed in duplicate and in the presence and absence of added pyrophosphate as a recovery test.
Volunteer two was an adult volunteer who had just been scheduled by the same internist to start the same medication for their hypertension.

With `COc1ccc([C@@H]2Sc3ccccc3N(CCN(C)C)C(=O)[C@@H]2OC(C)=O)cc1` [diltiazem] the “effect on intracellular concentration of pyrophosphate (PPi)” value (mononuclear cells of peripheral blood, result in words) was “lowers the intracellular concentration of pyrophosphate (PPi); also recorded: comparable lowering of mononuclear cells in one of two patients”, the PPi (subject one (chondrocalcinosis), diltiazem 60 mg/day taken for only one day, collection 03/13/91) was 241 pmole/10^6 cells and the PPi (subject one (chondrocalcinosis), diltiazem 60 mg/day, collection 05/16/91) was 128 pmole/10^6 cells. For the same compound, the PPi (subject three (chondrocalcinosis), diltiazem 60 mg/day, collection 09/11/91) was 343 pmole/10^6 cells.
